Experiment [1] relates to 3T3EGFR. In words: BrdU incorporation assay, 3T3EGFR, EGF. It counts as cell-based.
In experiment [2] the test system is 3T3EGFR. Nature of the experiment: BrdU incorporation assay, 3T3EGFR, PDGF. It counts as cell-based. (In general: Dividing cells build labelled thymidine or BrdU into new DNA.)
In the next experiment the test system is SKOV3 cells. Nature of the experiment: Growth of SKOV3 cells (SRB). It counts as cell-based. Particulars: Homo sapiens, SK-OV-3, 2%. The text has this:
The assay is the same as the assay set forth in EXAMPLE 10, except that SKOV3 cells (ATCC HTB77) are used instead of A431 cells.
Compound of formula VI inhibited the growth rate of SKOV3 cells as illustrated in Table 10.

Another experiment addresses T1, IGF-1 receptor (Homo sapiens, UniProt P08069).
T1 construct: expressed in transfected cells; host or cells: 3T3-L1/IGF-1R (also written NIH3T3/IGF-1R)
In words: IGF-1 receptor phosphorylation assay in cells (ELISA). As to conditions: 3T3-L1/IGF-1R cells, IGF-1 stimulation. It counts as cell-based. On the procedure:
The following protocol was used to measure phosphotyrosine level on IGF-1 receptor, which indicates IGF-1 receptor tyrosine kinase activity.
a. The cell line used in this assay is 3T3-L1/IGF-1R, a cell line genetically engineered to overexpresses IGF-1 receptor.
2. Resuspend the cells in fresh DMEM+10% FBS+2mM L-Glutamine, and transfer to 96-well tissue culture plate (Corning, 250806-96) at 20,000 cells/well (100 μL/well). Incubate for 1 day then replace medium to serum-free medium (90/μL) and incubate in 5% CO2 and 37° C. overnight.
1. Coat the ELISA plate (Corning 25805-96) with Anti-IGF-1R Antibody at 0.5 μg/well in 100 μL PBS at least 2 hours.
2. Dilute drug stock (in 100% DMSO) 1:10 with DMEM in 96-well poly-propylene plate, and transfer 10 μL/well of this solution to the cells to achieve final drug dilution 1:100, and final DMSO concentration of 1.0%. Incubate the cells in 5% C02 at 37° C. for 2 hours.
4. After drug incubation for two hours, transfer 10 μL/well of 200 nM IGF-1 Ligand m PBS to the cells (Final Conc.=20 nM), and incubate at 5% CO2 at 37° C. for 10 minutes.
5. Remove media and add 100 μL/well HNTG* and shake for 10 minutes. Look at cells under microscope to see if they are adequately lysed.
6. […]
The IC50 values measured in the IGF-1 receptor phosphorylation assay for the compound of formula VI are depicted in Table 4: […]
On the technique in general: In an ELISA, binding on a coated surface is turned into a signal by an enzyme label.

In another experiment the target is EGFR (Homo sapiens, UniProt P00533). In words: Biochemical EGFR assay (ELISA, A431 cell lysate). The arrangement: Add 7 μg A431 cell lysate per well (EGFR source); endogenous in cells; host or cells: A431 cell lysate, captured on 05-101 anti-EGFR antibody. As to conditions: A431 cell lysate as EGFR source. The text has this:
The following protocol describes the procedures used to analyze protein tyrosine kinase activity on the EGFR in an Elisa. The procedure also describes the protocol for the initial screening of drugs for inhibition or activation of protein tyrosine kinase activity.
A431 cells are available from a variety of commercial sources and may be used lysed using conventional methods known to those skilled in the art or as described for lysis of the 3T3 cells in the EGF cellular assay described herein. −80° C., 1 mL aliquots
1. Coat Corning 96-well elisa plates with 0.5 μg per well 05-101 antibody. Bring final volume to 100 μL per well with PBS. Coat plates overnight at 4° C.
5. Add 7 μg A431 cell lysate per well (EGFR source). Add PBS to final volume of 100 μL per well. Incubate 30 minutes while shaking.
7. At this point, drugs or extracts are added to the wells. Dilute drugs/extracts 1:100 (unless specified otherwise) in TBS+10% DMSO in 96-well polypropylene plates. Add 120 μL TBS to ELISA plate containing captured EGFR. […] Incubate plate 30 minutes while shaking.
8. […] (150 μL final volume in well with 3 μM ATP/5 mM MnCl2 final concentration in well.) Incubate 5 minutes while shaking vigorously.
9. […]
17. Read assay on Dynatech MR7000 elisa reader.
The IC50 values measured in the above assay for the compound of formula VI are depicted in Table 2: […]

The values that follow come from patent US6514981B1, “Methods of modulating tyrosine protein kinase function with indolinone compounds” (Sugen, Inc., priority 1998, dated 2003).

Some results are limits rather than exact numbers.

T1 sequence (P08069 31-1367): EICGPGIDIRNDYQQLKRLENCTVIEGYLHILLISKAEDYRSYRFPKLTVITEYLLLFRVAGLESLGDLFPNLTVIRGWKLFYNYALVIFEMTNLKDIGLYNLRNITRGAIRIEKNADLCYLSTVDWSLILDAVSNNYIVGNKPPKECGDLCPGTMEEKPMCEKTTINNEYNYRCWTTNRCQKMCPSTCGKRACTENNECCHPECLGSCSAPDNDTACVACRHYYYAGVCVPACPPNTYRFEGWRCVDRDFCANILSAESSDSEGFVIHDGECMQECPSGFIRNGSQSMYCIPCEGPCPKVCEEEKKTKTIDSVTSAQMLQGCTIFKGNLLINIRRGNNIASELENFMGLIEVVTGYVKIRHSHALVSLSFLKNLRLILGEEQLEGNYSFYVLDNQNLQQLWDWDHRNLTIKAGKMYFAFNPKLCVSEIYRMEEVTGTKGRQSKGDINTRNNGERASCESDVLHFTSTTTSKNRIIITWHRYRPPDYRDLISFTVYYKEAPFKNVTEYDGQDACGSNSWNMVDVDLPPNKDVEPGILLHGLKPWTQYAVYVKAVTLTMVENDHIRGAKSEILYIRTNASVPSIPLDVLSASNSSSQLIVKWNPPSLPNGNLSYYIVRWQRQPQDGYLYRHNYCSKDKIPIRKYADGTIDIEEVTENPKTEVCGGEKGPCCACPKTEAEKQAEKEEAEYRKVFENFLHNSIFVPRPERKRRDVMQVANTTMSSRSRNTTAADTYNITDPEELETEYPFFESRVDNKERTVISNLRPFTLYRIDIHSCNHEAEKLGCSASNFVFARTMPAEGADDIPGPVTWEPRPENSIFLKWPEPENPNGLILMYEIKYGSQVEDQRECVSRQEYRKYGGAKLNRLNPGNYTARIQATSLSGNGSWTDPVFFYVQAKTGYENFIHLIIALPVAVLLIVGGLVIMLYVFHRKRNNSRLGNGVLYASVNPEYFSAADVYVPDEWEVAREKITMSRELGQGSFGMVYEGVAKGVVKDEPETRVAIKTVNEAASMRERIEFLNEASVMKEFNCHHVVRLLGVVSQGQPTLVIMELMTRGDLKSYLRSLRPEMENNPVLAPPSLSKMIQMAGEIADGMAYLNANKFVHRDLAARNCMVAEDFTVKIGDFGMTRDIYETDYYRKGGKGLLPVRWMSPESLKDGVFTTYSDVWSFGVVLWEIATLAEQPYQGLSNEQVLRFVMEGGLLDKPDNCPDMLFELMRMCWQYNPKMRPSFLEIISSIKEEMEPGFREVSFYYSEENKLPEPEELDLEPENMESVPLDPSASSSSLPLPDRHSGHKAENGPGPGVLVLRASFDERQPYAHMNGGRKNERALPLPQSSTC
Sequence of EGFR (P00533 25-1210): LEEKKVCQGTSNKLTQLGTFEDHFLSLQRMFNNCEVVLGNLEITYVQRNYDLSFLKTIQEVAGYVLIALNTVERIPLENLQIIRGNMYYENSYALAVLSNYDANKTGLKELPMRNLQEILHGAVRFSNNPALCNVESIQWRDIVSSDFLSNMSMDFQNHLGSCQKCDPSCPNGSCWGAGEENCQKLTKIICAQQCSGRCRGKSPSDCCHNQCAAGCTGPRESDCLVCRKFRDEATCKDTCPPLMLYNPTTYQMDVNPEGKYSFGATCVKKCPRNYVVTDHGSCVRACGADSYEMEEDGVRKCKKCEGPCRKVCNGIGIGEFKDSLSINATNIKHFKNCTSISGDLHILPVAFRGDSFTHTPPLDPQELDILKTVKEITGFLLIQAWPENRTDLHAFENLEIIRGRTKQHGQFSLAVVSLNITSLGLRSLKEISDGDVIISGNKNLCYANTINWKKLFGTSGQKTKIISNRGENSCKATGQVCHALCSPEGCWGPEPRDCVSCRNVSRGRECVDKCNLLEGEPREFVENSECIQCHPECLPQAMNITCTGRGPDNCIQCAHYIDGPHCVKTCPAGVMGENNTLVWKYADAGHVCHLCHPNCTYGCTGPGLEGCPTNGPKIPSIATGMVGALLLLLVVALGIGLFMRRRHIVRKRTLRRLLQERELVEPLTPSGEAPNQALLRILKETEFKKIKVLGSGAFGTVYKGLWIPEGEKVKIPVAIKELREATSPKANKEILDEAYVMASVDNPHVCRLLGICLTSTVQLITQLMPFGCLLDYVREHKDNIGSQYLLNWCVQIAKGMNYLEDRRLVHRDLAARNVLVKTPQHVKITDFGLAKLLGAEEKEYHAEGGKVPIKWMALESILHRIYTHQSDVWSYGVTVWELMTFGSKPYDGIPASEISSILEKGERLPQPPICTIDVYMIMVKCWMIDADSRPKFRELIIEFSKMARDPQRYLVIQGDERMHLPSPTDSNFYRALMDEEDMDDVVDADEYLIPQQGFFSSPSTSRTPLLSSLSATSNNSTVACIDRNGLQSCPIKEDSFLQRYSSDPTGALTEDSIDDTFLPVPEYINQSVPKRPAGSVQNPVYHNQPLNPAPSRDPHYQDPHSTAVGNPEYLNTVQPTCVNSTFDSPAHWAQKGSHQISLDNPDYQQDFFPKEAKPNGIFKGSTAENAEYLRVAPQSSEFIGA

As for `Cc1cc(/C=C2/C(=O)Nc3ccccc32)c(C)c2c1[nH]c1ccccc12` [VI], the IC50 (as a rule, the concentration that gives 50% inhibition) in the experiment on 3T3EGFR [1] was 7.03 µM; in the experiment on 3T3EGFR [2] it was 7 µM; in the experiment on SKOV3 cells it was 1.08 µM; against IGF-1 receptor, 8.52 µM; at EGFR it was over 50 µM.
